Reference: ChEMBL document CHEMBL1131910, “Exploratory solid-phase synthesis of factor Xa inhibitors: discovery and application of p3-heterocyclic amides as novel types of non-basic arginine surrogates” (Bioorg Med Chem Lett, 1999)

How the values were obtained:
[1] = biological target: T1, Prothrombin (Homo sapiens, UniProt P00734); assay: In vitro inhibition of human Thrombin (FIIa).
[2] = biological target: T2, Serine protease 1 (Homo sapiens, UniProt P07477); assay: In vitro inhibition of human trypsin.
T2 sequence (P07477 whole entry): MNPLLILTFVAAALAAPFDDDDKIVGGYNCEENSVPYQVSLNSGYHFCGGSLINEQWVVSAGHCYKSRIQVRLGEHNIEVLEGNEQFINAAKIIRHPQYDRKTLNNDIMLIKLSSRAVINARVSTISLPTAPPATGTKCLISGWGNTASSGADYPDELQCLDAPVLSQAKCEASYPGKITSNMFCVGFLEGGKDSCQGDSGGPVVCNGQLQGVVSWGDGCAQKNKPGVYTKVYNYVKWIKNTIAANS

[3] = biological target: T3, Plasminogen (Homo sapiens, UniProt P00747); assay: In vitro inhibition of human thrombolytic protease Plasmin.
T3 sequence (P00747 97-580 limits assumed): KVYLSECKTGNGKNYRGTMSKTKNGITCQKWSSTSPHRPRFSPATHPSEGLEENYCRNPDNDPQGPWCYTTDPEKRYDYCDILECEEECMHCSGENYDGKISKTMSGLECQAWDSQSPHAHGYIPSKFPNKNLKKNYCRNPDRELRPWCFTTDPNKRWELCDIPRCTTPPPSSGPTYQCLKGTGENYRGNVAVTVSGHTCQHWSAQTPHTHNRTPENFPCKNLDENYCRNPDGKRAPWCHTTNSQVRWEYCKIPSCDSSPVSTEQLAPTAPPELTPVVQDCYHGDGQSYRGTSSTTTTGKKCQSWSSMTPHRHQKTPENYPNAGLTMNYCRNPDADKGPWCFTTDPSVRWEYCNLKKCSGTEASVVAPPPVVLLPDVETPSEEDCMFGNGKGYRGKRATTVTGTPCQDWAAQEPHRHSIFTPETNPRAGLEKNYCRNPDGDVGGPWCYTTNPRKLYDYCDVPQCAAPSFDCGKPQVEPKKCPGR
T3 sequence (P00747 581-810 limits assumed): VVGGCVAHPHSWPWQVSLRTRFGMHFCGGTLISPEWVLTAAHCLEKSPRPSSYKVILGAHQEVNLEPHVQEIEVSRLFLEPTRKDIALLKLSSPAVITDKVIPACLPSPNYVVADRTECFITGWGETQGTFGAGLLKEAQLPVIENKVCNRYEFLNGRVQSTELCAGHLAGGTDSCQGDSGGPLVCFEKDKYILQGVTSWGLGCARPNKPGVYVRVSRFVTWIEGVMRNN

[4] = biological target: T4, Coagulation factor X (Homo sapiens, UniProt P00742); assay: In vitro inhibition of human Factor Xa.
T4 sequence (P00742 41-179 limits assumed): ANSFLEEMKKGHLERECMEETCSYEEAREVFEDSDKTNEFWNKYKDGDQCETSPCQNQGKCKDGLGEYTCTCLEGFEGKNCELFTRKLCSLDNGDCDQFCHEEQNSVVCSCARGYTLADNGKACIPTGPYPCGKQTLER
T4 sequence (P00742 235-488 limits assumed): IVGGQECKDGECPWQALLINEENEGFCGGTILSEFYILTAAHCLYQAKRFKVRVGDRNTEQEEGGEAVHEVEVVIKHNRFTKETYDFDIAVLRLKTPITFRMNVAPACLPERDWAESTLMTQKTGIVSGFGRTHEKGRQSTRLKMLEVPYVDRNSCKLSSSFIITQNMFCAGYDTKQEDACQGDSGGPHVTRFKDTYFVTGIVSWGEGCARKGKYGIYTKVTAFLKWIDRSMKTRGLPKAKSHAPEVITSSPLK

[5] = biological target: T1, Prothrombin; assay: In vitro inhibition against human Thrombin ( FIIa) was evaluated; Inactive
[6] = biological target: T3, Plasminogen; assay: In vitro inhibition against human thrombolytic protease Plasmin was evaluated; Inactive
[7] = biological target: T2, Serine protease 1; assay: In vitro inhibition against human trypsin was evaluated; Inactive
[8] = biological target: T4, Coagulation factor X; assay: In vitro inhibition against human Factor Xa (FXa) was evaluated; Inactive

| SMILES | IC50 [1] [nM] | IC50 [2] [nM] | IC50 [3] [nM] | IC50 [4] [nM] | IC50 [5] | IC50 [6] | IC50 [7] | IC50 [8] |
| --- | --- | --- | --- | --- | --- | --- | --- | --- |
| N=C(N)N1CCC[C@H](NC(=O)CNC(=O)[C@@H](CCNC(=O)c2nccc3ccccc23)NC(=O)OCc2ccccc2)C1O (some centres undefined) | > 2500 | > 2500 | > 2500 | 313 | – | – | – | – |
| Cc1cnc(C(=O)NCC[C@@H](NC(=O)OCc2ccccc2)C(=O)NCC(=O)N[C@H]2CCCN(C(=N)N)C2O)cn1 (some centres undefined) | > 2500 | 40.3 | > 2500 | 232 | – | – | – | – |
| N=C(N)N1CCC[C@H](NC(=O)CNC(=O)[C@@H](CCNC(=O)c2cnc3ccccc3c2)NS(=O)(=O)Cc2ccccc2)C1O (some centres undefined) | 537 | 111 | 250 | 10.6 | – | – | – | – |
| N=C(N)N1CCC[C@H](NC(=O)CNC(=O)[C@@H](CCNC(=O)c2cnccn2)NC(=O)OCc2ccccc2)C1O (some centres undefined) | 2500 | 30 | 2030 | 106 | – | – | – | – |
| N=C(N)N1CCC[C@H](NC(=O)CNC(=O)[C@@H](CCNC(=O)c2nccc3ccccc23)NS(=O)(=O)Cc2ccccc2)C1O (some centres undefined) | > 2500 | 97.8 | 730 | 4.9 | – | – | – | – |
| N=C(N)N1CCC[C@H](NC(=O)CNC(=O)[C@@H](CCNC(=O)c2cncc(Br)c2)NS(=O)(=O)Cc2ccccc2)C1O (some centres undefined) | > 2500 | 160 | 1060 | 10.6 | – | – | – | – |
| N=C(N)NCCCC(NS(=O)(=O)Cc1ccccc1)C(=O)NCC(=O)N[C@H]1CCCN(C(=N)N)C1O (some centres undefined) | > 2500 | 75 | – | 0.7 | – | – | – | – |
| N=C(N)N1CCC[C@H](NC(=O)CNC(=O)[C@@H](CCNC(=O)c2cccnc2)NS(=O)(=O)Cc2ccccc2)C1O (some centres undefined) | > 2500 | 561 | 2500 | 79.1 | – | – | – | – |
| N=C(N)N1CCC[C@H](NC(=O)CNC(=O)[C@@H](CCNC(=O)c2ccc3ccccc3n2)NS(=O)(=O)Cc2ccccc2)C1O (some centres undefined) | 1270 | 59.2 | 1440 | 44.4 | – | – | – | – |
| N=C(N)N1CCC[C@H](NC(=O)CNC(=O)[C@@H](CNC(=O)c2cnccn2)NS(=O)(=O)Cc2ccccc2)C1O (some centres undefined) | > 2500 | 152 | 1480 | 311 | – | – | – | – |
| N=C(N)N1CCC[C@H](NC(=O)CNC(=O)[C@@H](CCNC(=O)c2ccccc2)NS(=O)(=O)Cc2ccccc2)C1O (some centres undefined) | – | – | – | – | Not Active | Not Active | Not Active | Not Active |
| N=C(N)N1CCC[C@H](NC(=O)CNC(=O)[C@@H](CCNC(=O)c2ccccn2)NS(=O)(=O)Cc2ccccc2)C1O (some centres undefined) | > 2500 | 223 | 1140 | 20.5 | – | – | – | – |
| N=C(N)N1CCC[C@H](NC(=O)CNC(=O)[C@@H](CCNC(=O)c2cncc(Br)c2)NC(=O)OCc2ccccc2)C1O (some centres undefined) | > 2500 | > 31.2 | > 2500 | 313 | – | – | – | – |
| N=C(N)N1CCC[C@H](NC(=O)CNC(=O)[C@@H](CCNC(=O)c2cnc3ccccc3c2)NC(=O)OCc2ccccc2)C1O (some centres undefined) | > 2500 | 20.4 | 1140 | 169 | – | – | – | – |
| N=C(N)N1CCC[C@H](NC(=O)CNC(=O)[C@@H](CCNC(=O)c2cnnc3ccccc23)NS(=O)(=O)Cc2ccccc2)C1O (some centres undefined) | 1770 | 4.21 | 700 | 5.6 | – | – | – | – |
| N=C(N)N1CCC[C@H](NC(=O)CNC(=O)[C@@H](CCNC(=O)c2ccc(O)nc2)NS(=O)(=O)Cc2ccccc2)C1O (some centres undefined) | > 2500 | 26.6 | 367 | 6.1 | – | – | – | – |
| N=C(N)N1CCC[C@H](NC(=O)CNC(=O)[C@@H](CCNC(=O)c2cn[nH]c2)NC(=O)OCc2ccccc2)C1O (some centres undefined) | > 2500 | 74.5 | 3270 | 346 | – | – | – | – |
| N=C(N)N1CCC[C@H](NC(=O)CNC(=O)[C@@H](CCCNC(=O)c2cnccn2)NS(=O)(=O)Cc2ccccc2)C1O (some centres undefined) | 2500 | 324 | 673 | 15 | – | – | – | – |
| N=C(N)N1CCC[C@H](NC(=O)CNC(=O)[C@@H](CCNC(=O)c2cnccn2)NS(=O)(=O)Cc2ccccc2)C1O (some centres undefined) | > 2500 | 166 | 521 | 5 | – | – | – | – |
| N=C(N)N1CCC[C@H](NC(=O)CNC(=O)[C@@H](CCNC(=O)c2nc3ccccc3nc2O)NS(=O)(=O)Cc2ccccc2)C1O (some centres undefined) | > 2500 | – | – | > 2500 | – | Not Active | Not Active | – |
